Data as given in patent publication US20080200442A1, “Compositions and Methods for Treating, Reducing, Ameliorating, or Preventing Infections of the Ear or Upper Respiratory Tract” (priority 2007, published 2008).
In brackets after ≈: the same amount, converted by molar mass.

Test system: Salmonella typhimurium (TD)
Assay: In vitro anti-bacterial activity (MIC90), Gram-negative reference strains
Type: cell-based
Details: not given
Experimental: Anti-bacterial activity of the compound having Formula III was tested against several Gram-negative reference bacteria strains and compared to the anti-bacterial activity of three commercially available antibiotics (nadifloxacin, ofloxacin, and sparfloxacin).

Row | SMILES | MIC90 [mμg/mL]
1 | CC1COc2c(N3CCN(C)CC3)c(F)cc3c(=O)c(C(=O)O)cn1c23 (stereo not drawn) [Ofloxacin] | 0.05

Test system: Bacillis subtilis (ATCC 6633)
Assay: In vitro anti-bacterial activity (MIC90), Gram-positive reference strains
Type: cell-based
Details: not given
Experimental: (§1) Anti-bacterial activity of the compound having Formula III was tested against several Gram-negative reference bacteria strains and compared to the anti-bacterial activity of three commercially available antibiotics (nadifloxacin, ofloxacin, and sparfloxacin). The results are shown in Table 2 as MIC90 values (minimum concentration of the active compound required to inhibit ninety percent of the growth of a specified pathogen, in μg/ml). Anti-bacterial activity of the compound having Formula III was tested against several Gram-positive reference bacteria strains and compared to the anti-bacterial activity of three commercially available antibiotics (nadifloxacin, ofloxacin, and sparfloxacin).

Row | SMILES | MIC90 [µg/mL]
2 | CC1COc2c(N3CCN(C)CC3)c(F)cc3c(=O)c(C(=O)O)cn1c23 (stereo not drawn) [Ofloxacin] | 0.05 (≈ 0.138 µM)

Test system: Sarcina lutea (ATCC 9341)
Assay: as above
Type: cell-based
Details: Micrococcus luteus, ATCC9341
Experimental: as §1

Row | SMILES | MIC90 [µg/mL]
3 | CC1COc2c(N3CCN(C)CC3)c(F)cc3c(=O)c(C(=O)O)cn1c23 (stereo not drawn) [Ofloxacin] | 3.13 (≈ 8.66 µM)

Test system: Staphylococcus aureus (ATCC 25933)
Assay: as above
Type: cell-based
Details: ATCC25933
Experimental: as §1

Row | SMILES | MIC90 [µg/mL]
4 | CC1COc2c(N3CCN(C)CC3)c(F)cc3c(=O)c(C(=O)O)cn1c23 (stereo not drawn) [Ofloxacin] | 0.39 (≈ 1.08 µM)

Test system: Staphylococcus aureus (FDA 209P)
Assay: as above
Type: cell-based
Details: FDA209P
Experimental: as §1

Row | SMILES | MIC90 [µg/mL]
5 | CC1COc2c(N3CCN(C)CC3)c(F)cc3c(=O)c(C(=O)O)cn1c23 (stereo not drawn) [Ofloxacin] | 0.2 (≈ 0.553 µM)

Test system: Staphylococcus aureus (Smith)
Assay: as above
Type: cell-based
Details: not given
Experimental: as §1

Row | SMILES | MIC90 [µg/mL]
6 | CC1COc2c(N3CCN(C)CC3)c(F)cc3c(=O)c(C(=O)O)cn1c23 (stereo not drawn) [Ofloxacin] | 0.2 (≈ 0.553 µM)

Test system: Staphylococcus epidermidis (ATCC 12228)
Assay: as above
Type: cell-based
Details: ATCC12228
Experimental: as §1

Row | SMILES | MIC90 [µg/mL]
7 | CC1COc2c(N3CCN(C)CC3)c(F)cc3c(=O)c(C(=O)O)cn1c23 (stereo not drawn) [Ofloxacin] | 0.78 (≈ 2.16 µM)

Test system: Streptococcus faecalis (ATCC 29212)
Assay: as above
Type: cell-based
Details: Enterococcus faecalis, ATCC29212
Experimental: as §1

Row | SMILES | MIC90 [µg/mL]
8 | CC1COc2c(N3CCN(C)CC3)c(F)cc3c(=O)c(C(=O)O)cn1c23 (stereo not drawn) [Ofloxacin] | 1.56 (≈ 4.32 µM)

Test system: Streptococcus faecalis (IFO 12964)
Assay: as above
Type: cell-based
Details: Enterococcus faecalis, IFO12964
Experimental: as §1

Row | SMILES | MIC90 [µg/mL]
9 | CC1COc2c(N3CCN(C)CC3)c(F)cc3c(=O)c(C(=O)O)cn1c23 (stereo not drawn) [Ofloxacin] | 1.56 (≈ 4.32 µM)

Test system: Streptococcus pneniae (IID 554)
Assay: as above
Type: cell-based
Details: IID554
Experimental: as §1

Row | SMILES | MIC90 [µg/mL]
10 | CC1COc2c(N3CCN(C)CC3)c(F)cc3c(=O)c(C(=O)O)cn1c23 (stereo not drawn) [Ofloxacin] | 1.56 (≈ 4.32 µM)

Test system: Streptococcus pneumoniae (IID 553)
Assay: as above
Type: cell-based
Details: IID553
Experimental: as §1

Row | SMILES | MIC90 [µg/mL]
11 | CC1COc2c(N3CCN(C)CC3)c(F)cc3c(=O)c(C(=O)O)cn1c23 (stereo not drawn) [Ofloxacin] | 1.56 (≈ 4.32 µM)

Test system: Streptococcus pyogenes (Cook)
Assay: as above
Type: cell-based
Details: not given
Experimental: as §1

Row | SMILES | MIC90 [µg/mL]
12 | CC1COc2c(N3CCN(C)CC3)c(F)cc3c(=O)c(C(=O)O)cn1c23 (stereo not drawn) [Ofloxacin] | 0.78 (≈ 2.16 µM)

Test system: Streptococcus pyogenes (IID 698)
Assay: as above
Type: cell-based
Details: IID698
Experimental: as §1

Row | SMILES | MIC90 [µg/mL]
13 | CC1COc2c(N3CCN(C)CC3)c(F)cc3c(=O)c(C(=O)O)cn1c23 (stereo not drawn) [Ofloxacin] | 0.39 (≈ 1.08 µM)

Test system: Staphylococcus aureus (ATCC 33591)
Assay: In vitro anti-bacterial activity (MIC90), methicillin-resistant Staphylococcus aureus isolates
Type: cell-based
Details: ATCC33591; methicillin-resistant Staphylococcus aureus (ATCC 33591)
Experimental: (§2) Anti-bacterial activity of the compound having Formula III was tested against several Gram-negative reference bacteria strains and compared to the anti-bacterial activity of three commercially available antibiotics (nadifloxacin, ofloxacin, and sparfloxacin). The results are shown in Table 2 as MIC90 values (minimum concentration of the active compound required to inhibit ninety percent of the growth of a specified pathogen, in μg/ml).
(§3) Anti-bacterial activity of the compound having Formula III was tested against some methicillin-resistant Staphylococcus aureus bacteria strains and compared to the anti-bacterial activity of three commercially available antibiotics (nadifloxacin, ofloxacin, and sparfloxacin).

Row | SMILES | MIC90 [µg/mL]
14 | CC1COc2c(N3CCN(C)CC3)c(F)cc3c(=O)c(C(=O)O)cn1c23 (stereo not drawn) [Ofloxacin] | 0.05 (≈ 0.138 µM)

Test system: Staphylococcus aureus (ATCC 33592)
Assay: as above
Type: cell-based
Details: ATCC33592; methicillin-resistant Staphylococcus aureus (ATCC 33592)
Experimental: as §2, §3

Row | SMILES | MIC90 [µg/mL]
15 | CC1COc2c(N3CCN(C)CC3)c(F)cc3c(=O)c(C(=O)O)cn1c23 (stereo not drawn) [Ofloxacin] | 0.39 (≈ 1.08 µM)

Test system: Staphylococcus aureus (ATCC 33593)
Assay: as above
Type: cell-based
Details: ATCC33593; methicillin-resistant Staphylococcus aureus (ATCC 33593)
Experimental: as §2, §3

Row | SMILES | MIC90 [µg/mL]
16 | CC1COc2c(N3CCN(C)CC3)c(F)cc3c(=O)c(C(=O)O)cn1c23 (stereo not drawn) [Ofloxacin] | 0.2 (≈ 0.553 µM)

Test system: Staphylococcus aureus (No. 395)
Assay: as above
Type: cell-based
Details: methicillin-resistant Staphylococcus aureus (No. 395)
Experimental: as §2, §3

Row | SMILES | MIC90 [µg/mL]
17 | CC1COc2c(N3CCN(C)CC3)c(F)cc3c(=O)c(C(=O)O)cn1c23 (stereo not drawn) [Ofloxacin] | 0.2 (≈ 0.553 µM)

Test system: Staphylococcus aureus (No. 415)
Assay: as above
Type: cell-based
Details: methicillin-resistant Staphylococcus aureus (No. 415)
Experimental: as §2, §3

Row | SMILES | MIC90 [µg/mL]
18 | CC1COc2c(N3CCN(C)CC3)c(F)cc3c(=O)c(C(=O)O)cn1c23 (stereo not drawn) [Ofloxacin] | 0.78 (≈ 2.16 µM)

Test system: Staphylococcus aureus (No. 419)
Assay: as above
Type: cell-based
Details: methicillin-resistant Staphylococcus aureus (No. 419)
Experimental: as §2, §3

Row | SMILES | MIC90 [µg/mL]
19 | CC1COc2c(N3CCN(C)CC3)c(F)cc3c(=O)c(C(=O)O)cn1c23 (stereo not drawn) [Ofloxacin] | 3.13 (≈ 8.66 µM)

Test system: Staphylococcus aureus (No. 420)
Assay: as above
Type: cell-based
Details: methicillin-resistant Staphylococcus aureus (No. 420)
Experimental: as §2, §3

Row | SMILES | MIC90 [µg/mL]
20 | CC1COc2c(N3CCN(C)CC3)c(F)cc3c(=O)c(C(=O)O)cn1c23 (stereo not drawn) [Ofloxacin] | 1.56 (≈ 4.32 µM)

Test system: Staphylococcus aureus (No. 421)
Assay: as above
Type: cell-based
Details: methicillin-resistant Staphylococcus aureus (No. 421)
Experimental: as §2, §3

Row | SMILES | MIC90 [µg/mL]
21 | CC1COc2c(N3CCN(C)CC3)c(F)cc3c(=O)c(C(=O)O)cn1c23 (stereo not drawn) [Ofloxacin] | 1.56 (≈ 4.32 µM)
